# From US20140005177A1, “PYRIDINYL- AND PYRAZINYL-METHYLOXY-ARYL DERIVATIVES USEFUL AS INHIBITORS OF SPLEEN TYROSINE KINASE (SYK)” (GLAXO GROUP LIMITED, priority 2011, published 2014)
# Counter-ions that a name gives are not always drawn.
# Tested on: Ramos B cells
# Experiment: Ramos pErk assay (anti-IgM stimulated B cells, pErk MSD)
# Assay type: cell-based
# Details: Homo sapiens, Ramos, anti-IgM 5 μg/ml, pErk readout, read-out: average pIC50 (converted)
# Protocol: Ramos B cells (human B cells of Burkitt's Lymphoma) are stimulated using anti-IgM. […] The subsequent autophosphorylation of Syk leads to initiation of a signalling cascade resulting in B cell activation via the Erk MAP Kinase pathway. As a result Erk is phosphorylated and following cell lysis is detected by an immune capture assay.
# Cells were plated at a density of 2.5×10^5/well in a volume of 25 μl assay medium (RPMI containing 10% heat inactivated foetal calf serum, 1% L-glutamine) in 96 v-well polypropylene plates. 25 μl appropriately diluted compound solution was added and the plate incubated for 30 min at 37° C. with 5% CO2. Cells were stimulated with 5 μl Fab′2 fragments of goat anti-human IgM (5 μg/ml final) for 7 min at 37° C. Cells are lysed by the addition of 55 μL 2×RIPA lysis buffer for 2 h at 4° C. Lysate may be frozen at this point at −80° C.
# 50 μl cell lysate was transferred to a 96 well MSD plate coated with anti-pErk1/2 (Thr/Tyr: 202/204; 185/187) capture antibody and incubated for 16 hours at 4° C. or 3 hours at room temperature. The plate was washed and an anti-pErk detection antibody added (25 μl/well) for 1 hour at room temperature. This was removed, 150 μL MSD read buffer added and the resultant electrochemiluminescence signal measured.
# Compound was prepared as a 10 mM stock in DMSO and a dilution series prepared in DMSO using 9 successive 5-fold dilutions. This dilution series was diluted a further 1:100 with assay medium to give the final concentration range to be tested of 5×10^−5 to 2.56×10^−11M. Compound dilutions were prepared using the Biomek 2000 and Biomek Nx automated robotic pipetting systems.
row,IC50,SMILES
1,158 to 6310 nM,"Cc1ccnc(COc2ccc(F)cc2-c2ccc3c(c2)CNCC3)c1 [Example 6, 7-(5-fluoro-2-{[(4-methyl-2-pyridinyl)methyl]oxy}phenyl)-1,2,3,4-tetrahydroisoquinoline]"
2,158 to 6310 nM,"Cc1ccnc(COc2ccc(C)cc2-c2ccc3c(c2)CNCC3)c1 [Example 10, 7-(5-methyl-2-{[(4-methyl-2-pyridinyl)methyl]oxy}phenyl)-1,2,3,4-tetrahydroisoquinoline]"
3,158 to 6310 nM,"CCOc1ccc(OCc2cc(C)ccn2)c(-c2ccc3c(c2)CNCC3)c1 [Example 12, 7-(5-(ethyloxy)-2-{[(4-methyl-2-pyridinyl)methyl]oxy}phenyl)-1,2,3,4-tetrahydroisoquinoline]"
4,158 to 6310 nM,"COc1ccc(OCc2cc(C)ccn2)c(-c2ccc3c(c2)CNCC3)c1 [Example 16, 7-(5-(methyloxy)-2-{[(4-methyl-2-pyridinyl)methyl]oxy}phenyl)-1,2,3,4-tetrahydroisoquinoline]"
5,158 to 6310 nM,"Cc1ccnc(COc2ccc(C)nc2-c2ccc3c(c2)CCNCC3)c1 [Example 19, 7-(6-methyl-3-{[(4-methyl-2-pyridinyl)methyl]oxy}-2-pyridinyl)-2,3,4,5-tetrahydro-1H-3-benzazepine, trifluoroacetate]"
6,158 to 6310 nM,"COc1ccc(OCc2cc(C)ccn2)c(-c2ccc3c(c2)CCNCC3)c1 [Example 22, 7-(5-(methyloxy)-2-{[(4-methyl-2-pyridinyl)methyl]oxy}phenyl)-2,3,4,5-tetrahydro-1H-3-benzazepine, trifluoroacetate]"
7,158 to 6310 nM,"Cc1ccnc(COc2ccc(F)cc2-c2ccc3c(c2)CCNCC3)c1 [Example 26, 7-(5-fluoro-2-{[(4-methyl-2-pyridinyl)methyl]oxy}phenyl)-2,3,4,5-tetrahydro-1H-3-benzazepine]"
8,158 to 6310 nM,"Cc1ccnc(COc2ccc(C)cc2-c2ccc3c(c2)CCNCC3)c1 [Example 27, 7-(5-methyl-2-{[(4-methyl-2-pyridinyl)methyl]oxy}phenyl)-2,3,4,5-tetrahydro-1H-3-benzazepine]"
9,158 to 6310 nM,"CCOc1ccc(OCc2cc(C)ccn2)c(-c2ccc3c(c2)CCNCC3)c1 [Example 28, 7-(5-(ethyloxy)-2-{[(4-methyl-2-pyridinyl)methyl]oxy}phenyl)-2,3,4,5-tetrahydro-1H-3-benzazepine]"
10,158 to 6310 nM,"Cc1ccnc(COc2ccc(C#N)cc2-c2ccc3c(c2)CCNCC3)c1 [Example 30, 4-{[(4-methyl-2-pyridinyl)methyl]oxy}-3-(2,3,4,5-tetrahydro-1H-3-benzazepin-7-yl)benzonitrile]"
11,158 to 6310 nM,"Cc1ccnc(COc2ccc(C(F)(F)F)cc2-c2ccc3c(c2)CCNCC3)c1 [Example 31, 7-[2-{[(4-methyl-2-pyridinyl)methyl]oxy}-5-(trifluoromethyl)phenyl]-2,3,4,5-tetrahydro-1H-3-benzazepine]"
12,158 to 6310 nM,"Cc1ccnc(COc2ccc(C(C)(C)C)cc2-c2ccc3c(c2)CCNCC3)c1 [Example 32, 7-(5-(1,1-dimethylethyl)-2-{[(4-methyl-2-pyridinyl)methyl]oxy}phenyl)-2,3,4,5-tetrahydro-1H-3-benzazepine]"
13,158 to 6310 nM,"Cc1ccnc(COc2ccc(C(C)(C)C)nc2-c2ccc3c(c2)CCNCC3)c1 [Example 34, 7-(6-(1,1-dimethylethyl)-3-{[(4-methyl-2-pyridinyl)methyl]oxy}-2-pyridinyl)-2,3,4,5-tetrahydro-1H-3-benzazepine]"
14,158 to 6310 nM,"CNC(=O)c1ccc(OCc2cc(C)ccn2)c(-c2ccc3c(c2)CCNCC3)c1 [Example 39, N-methyl-4-{[(4-methyl-2-pyridinyl)methyl]oxy}-3-(2,3,4,5-tetrahydro-1H-3-benzazepin-7-yl)benzamide]"
15,158 to 6310 nM,"Cc1ccnc(COc2ccc(Cl)cc2-c2ccc3c(c2)CCNCC3)c1 [Example 45, 7-(5-chloro-2-{[(4-methyl-2-pyridinyl)methyl]oxy}phenyl)-2,3,4,5-tetrahydro-1H-3-benzazepine]"
16,158 to 6310 nM,"Cc1ccnc(COc2ccc(Cl)nc2-c2ccc3c(c2)CCNCC3)c1 [Example 48, 7-(6-chloro-3-{[(4-methyl-2-pyridinyl)methyl]oxy}-2-pyridinyl)-2,3,4,5-tetrahydro-1H-3-benzazepine]"

# Continued, compound first:
row,SMILES,IC50
1,"COc1cccc(OCc2cc(C)ccn2)c1-c1ccc2c(c1)CCNCC2 [Example 2, 7-(2-(methyloxy)-6-{[(4-methyl-2-pyridinyl)methyl]oxy}phenyl)-2,3,4,5-tetrahydro-1H-3-benzazepine]",158 to 6310 nM
2,"COc1ccc(-c2ccc3c(c2)CCNCC3)c(OCc2cc(C)ccn2)c1 [Example 3, 7-(4-(methyloxy)-2-{[(4-methyl-2-pyridinyl)methyl]oxy}phenyl)-2,3,4,5-tetrahydro-1H-3-benzazepine]",158 to 6310 nM
3,"COc1ccnc(COc2ccccc2-c2ccc3c(c2)CCNCC3)c1 [Example 7, 7-[2-({[4-(methyloxy)-2-pyridinyl]methyl}oxy)phenyl]-2,3,4,5-tetrahydro-1H-3-benzazepine]",158 to 6310 nM
4,"COc1cccc(OCc2cc(C)ccn2)c1-c1ccc2c(c1)CNCC2 [Example 11, 7-(2-(methyloxy)-6-{[(4-methyl-2-pyridinyl)methyl]oxy}phenyl)-1,2,3,4-tetrahydroisoquinoline]",158 to 6310 nM
5,"Cc1ccnc(COc2ccc(C(F)(F)F)cc2-c2ccc3c(c2)CNCC3)c1 [Example 15, 7-[2-{[(4-methyl-2-pyridinyl)methyl]oxy}-5-(trifluoromethyl)phenyl]-1,2,3,4-tetrahydroisoquinoline]",158 to 6310 nM
6,"Cc1ccnc(COc2ccc(C(C)(C)C)cc2-c2ccc3c(c2)CNCC3)c1 [Example 17, 7-(5-(1,1-dimethylethyl)-2-{[(4-methyl-2-pyridinyl)methyl]oxy}phenyl)-1,2,3,4-tetrahydroisoquinoline]",158 to 6310 nM
7,"COc1ccc(OCc2cnccn2)c(-c2ccc3c(c2)CCNCC3)c1 [Example 20, 7-{5-(methyloxy)-2-[(2-pyrazinylmethyl)oxy]phenyl}-2,3,4,5-tetrahydro-1H-3-benzazepine, trifluoroacetate]",158 to 6310 nM
8,"CC(=O)c1ccc(OCc2cc(C)ccn2)c(-c2ccc3c(c2)CCNCC3)c1 [Example 24, 1-[4-{[(4-methyl-2-pyridinyl)methyl]oxy}-3-(2,3,4,5-tetrahydro-1H-3-benzazepin-7-yl)phenyl]ethanone, trifluoroacetate]",158 to 6310 nM
9,"CCc1ccnc(COc2ccc(C)nc2-c2ccc3c(c2)CCNCC3)c1 [Example 33, 7-(3-{[(4-ethyl-2-pyridinyl)methyl]oxy}-6-methyl-2-pyridinyl)-2,3,4,5-tetrahydro-1H-3-benzazepine]",158 to 6310 nM
10,"CCc1ccnc(COc2ccc(C(C)=O)cc2-c2ccc3c(c2)CCNCC3)c1 [Example 35, 1-[4-{[(4-ethyl-2-pyridinyl)methyl]oxy}-3-(2,3,4,5-tetrahydro-1H-3-benzazepin-7-yl)phenyl]ethanone]",158 to 6310 nM
11,"CCOc1ccnc(COc2ccc(C(C)=O)cc2-c2ccc3c(c2)CCNCC3)c1 [Example 36, 1-[4-({[4-(ethyloxy)-2-pyridinyl]methyl}oxy)-3-(2,3,4,5-tetrahydro-1H-3-benzazepin-7-yl)phenyl]ethanone]",158 to 6310 nM
12,"COc1ccc(OCc2ccccn2)c(-c2ccc3c(c2)CCNCC3)c1 [Example 37, 7-{5-(methyloxy)-2-[(2-pyridinylmethyl)oxy]phenyl}-2,3,4,5-tetrahydro-1H-3-benzazepine]",158 to 6310 nM
13,"CC(=O)c1ccc(OCc2ccccn2)c(-c2ccc3c(c2)CNCC3)c1 [Example 38, 1-[4-[(2-pyridinylmethyl)oxy]-3-(1,2,3,4-tetrahydro-7-isoquinolinyl)phenyl]ethanone]",158 to 6310 nM
14,"Cc1ccnc(COc2ccc(C(=O)N(C)C)cc2-c2ccc3c(c2)CNCC3)c1 [Example 41, N,N-dimethyl-4-{[(4-methyl-2-pyridinyl)methyl]oxy}-3-(1,2,3,4-tetrahydro-7-isoquinolinyl)benzamide]",158 to 6310 nM
15,"Clc1ccc(OCc2ccccn2)c(-c2ccc3c(c2)CNCC3)c1 [Example 46, 7-{5-chloro-2-[(2-pyridinylmethyl)oxy]phenyl}-1,2,3,4-tetrahydroisoquinoline]",158 to 6310 nM
16,"Cc1ccnc(COc2ccc(Cl)nc2-c2ccc3c(c2)CNCC3)c1 [Example 49, 7-(6-chloro-3-{[(4-methyl-2-pyridinyl)methyl]oxy}-2-pyridinyl)-1,2,3,4-tetrahydroisoquinoline]",158 to 6310 nM

# Same assay, conditions: Homo sapiens, anti-IgM 5 μg/ml, pErk readout, read-out: average pIC50 (converted)
row,SMILES,IC50
1,"COc1cccc(OCc2cc(C)ccn2)c1-c1ccc2c(c1)CCNCC2 [Example 2, 7-(2-(methyloxy)-6-{[(4-methyl-2-pyridinyl)methyl]oxy}phenyl)-2,3,4,5-tetrahydro-1H-3-benzazepine]",≤ 1000 nM
2,"COc1ccc(-c2ccc3c(c2)CCNCC3)c(OCc2cc(C)ccn2)c1 [Example 3, 7-(4-(methyloxy)-2-{[(4-methyl-2-pyridinyl)methyl]oxy}phenyl)-2,3,4,5-tetrahydro-1H-3-benzazepine]",≤ 1000 nM
3,"CC(=O)c1ccc(OCc2cc(C)ccn2)c(-c2ccc3c(c2)CCNCC3)c1 [Example 4, 1-[4-{[(4-methyl-2-pyridinyl)methyl]oxy}-3-(2,3,4,5-tetrahydro-1H-3-benzazepin-7-yl)phenyl]ethanone]",≤ 1000 nM

# Tested on: not given
# Experiment: not given
# Details: patients with DLBCL and CLL/SLL; cited from earlier work
row,SMILES,therapeutic effect
1,"COc1cc(Nc2ncc(F)c(Nc3ccc4c(n3)N(COP(=O)(O)O)C(=O)C(C)(C)O4)n2)cc(OC)c1OC [Example R788, fostamatinib disodium]",therapeutic benefit

# Same assay, conditions: patients with relapsed or refractory B-Cell NHL; cited from earlier work
row,SMILES,tolerability
1,"COc1cc(Nc2ncc(F)c(Nc3ccc4c(n3)N(COP(=O)(O)O)C(=O)C(C)(C)O4)n2)cc(OC)c1OC [Example R788, fostamatinib disodium]",well-tolerated
